Here are results for 66 compounds from PubChem BioAssay AID2124 (Sanford-Burnham Center for Chemical Genomics, 2009).

Records with an inconclusive call do not appear. Activity calls are given as the source filed them. The rule behind the calls is not given here; tested in MIN6 cells.

This assay can be described thus: GFP-wavelength compound autofluorescence in cells – imaging, high-content imaging, artefact control, dose response (AID 2124).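 For all read-outs here: cells exposed to compound for 48 hours before fixing.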 Particulars: cells, GFP-channel autofluorescence, high-content imaging, at 10 µM; for z-score: stronger effect = higher value.

As to `COc1cccc(OC)c1OCCN(C)C`, the z-score was -0.33 (inactive) and the cell count came out at 3360 cells.

On to `CCOC(=O)N1CCN(C(=O)c2cc(S(=O)(=O)N3CCCC3)cn2C)CC1`, for which the z-score is -0.33 (inactive) and the cell count was 3250 cells.

`COC(=O)c1[nH]c2cccc(Cl)c2c1NC(=O)CN(C)C1CCCCC1`: the z-score was -0.33 (inactive) and the cell count was 3280 cells.

For the compound `COc1ccc(C2C=C(c3cccs3)Nc3nc(CCCO)nn32)cc1` (configuration not stated), the z-score is -0.38 (inactive) and the cell count is 2650 cells.

Regarding `CCN1/C(=C/c2cc[n+](CCCS(=O)(=O)[O-])c3ccccc23)Sc2ccccc21`, the z-score is -0.24 (inactive) and the cell count turned out to be 1390 cells.

`O=C(COC(=O)c1cc(S(=O)(=O)N2CCOCC2)ccc1O)NCC1CCCO1` (configuration not stated): the z-score is -0.33 (inactive) and the cell count was 3080 cells.

As for `CCc1nnc(NC(=O)CCC(=O)NCc2ccccc2OC)s1`, the z-score was -0.38 (inactive) and the cell count is 2890 cells.

Take `N#C/C(=C/c1ccc(N2CCCCC2)o1)C(=O)Nc1ccc(Cl)cc1`: the z-score was 3 and the cell count came to 2990 cells.

With `CCn1cc(C(=O)NCCN(C)CCc2ccccc2)c(=O)c2cc(S(=O)(=O)N(C)C)ccc21`, the z-score is -0.33 (inactive) and the cell count was 3360 cells.

Turning to `CCOCCCNc1nc2c(C)cccn2c(=O)c1/C=C1\SC(=S)N(CC(C)C)C1=O`, the z-score is -0.38 (inactive) and the cell count was found to be 2900 cells.

Take `O=C(COC(=O)c1ccco1)NCC1CCCO1` (configuration not stated): the z-score was -0.39 (inactive) and the cell count stood at 2790 cells.

For the compound `N#Cc1ccc(-c2ccccc2)nc1SCC(=O)c1cccc(Cl)c1`, the z-score was -0.23 (inactive) and the cell count amounted to 3340 cells.

With `CCCC(=O)c1c(C)c2ccccc2n1C`, the z-score was -0.38 (inactive) and the cell count was 3160 cells.

As to `CC(/C=N/NC(=O)c1ccncc1)=C\c1ccc(C(C)C)cc1`, the z-score was -0.33 (inactive) and the cell count is 2700 cells.

In the case of `O=c1ccnc(Nc2ccc3c(c2)OCCO3)[nH]1`, the z-score was -0.39 (inactive) and the cell count turned out to be 2860 cells.

For the compound `O=c1c([N+](=O)[O-])cccn1Cc1ccc(F)cc1Cl`, the z-score is -0.38 (inactive) and the cell count is 2960 cells.

`O=C(CCl)Nc1cccc2ncccc12`: the z-score is -0.38 (inactive) and the cell count was 2060 cells.

`CN(C)c1ccc(C(=O)N/N=C/c2cc(Br)cc(Br)c2O)cc1`: the z-score is -0.38 (inactive) and the cell count was found to be 2500 cells.

`CC(C)(C)c1ccc(OCC(=O)Nc2ccc3c4c(cccc24)C(=O)NC3=O)cc1`: the z-score is -0.31 (inactive) and the cell count is 2490 cells.

On to `Cc1ccnc(N2C(=O)c3cccc4c([N+](=O)[O-])ccc(c34)C2=O)c1`, for which the z-score is 0.09 and the cell count amounted to 350 cells.

In the case of `O=C(O)CC12CSc3[nH]c(=O)sc3C1c1ccccc1OC2=O` (configuration not stated), the z-score was -0.33 (inactive) and the cell count is 3020 cells.

`COc1ccc(-c2nnn(CC(=O)N(CCO)C(C(=O)NC3CCCC3)c3ccc(F)cc3)n2)cc1` (configuration not stated): the z-score was -0.33 (inactive) and the cell count is 3200 cells.

Regarding `Cc1noc(C)c1S(=O)(=O)N1CCC(C(=O)N2CCN(C3CCCC3)CC2)CC1`, the z-score is -0.33 (inactive) and the cell count amounted to 2760 cells.

On to `Cc1ccccc1SCc1noc(C(=O)NC(C)C)c1C(=O)O`, for which the z-score is -0.39 (inactive) and the cell count is 3150 cells.

For the compound `N#Cc1nc(N2CCOCC2)nc(N2CCOCC2)n1`, the z-score is -0.39 (inactive) and the cell count came out at 3120 cells.

Take `COC(=O)c1cc(NC(=O)c2ccccc2)c(=O)oc1/C=C/Nc1ccc(Oc2ccccc2)cc1`: the z-score was 0.11 and the cell count amounted to 3070 cells.

For the compound `Cc1ccc(N=C2NC(=O)/C(=C/c3cn(C)c4ccccc34)S2)cc1C`, the z-score was -0.23 (inactive) and the cell count stood at 2580 cells.

For the compound `CCCc1n[nH]c2c1C(=O)C(C(=O)OC)C(C)(C)C2` (configuration not stated), the z-score was -0.39 (inactive) and the cell count turned out to be 3280 cells.

In the case of `Cc1nc(NC(=O)COC(=O)CCS(=O)(=O)c2ccccc2Cl)c(Cl)cc1Cl`, the z-score was -0.39 (inactive) and the cell count came out at 3210 cells.

In the case of `CCOC(=O)CNC(=O)c1cn(C)c(=O)c2cc(OC)c(OC)cc12`, the z-score was -0.33 (inactive) and the cell count turned out to be 3170 cells.

On to `CCOc1ccc(NC(=O)Cn2c(=O)oc3ccccc32)cc1`, for which the z-score is -0.25 (inactive) and the cell count worked out at 3070 cells.

`Cc1nc2c(oc3ccccc32)c(=O)o1`: the z-score was -0.33 (inactive) and the cell count came to 3020 cells.

Regarding `CCOc1ccc(CNC(=O)CCn2c(=O)oc3ccccc32)cc1`, the z-score was -0.38 (inactive) and the cell count is 3060 cells.

In the case of `O=C(Cn1ncn2c(cc3ccccc32)c1=O)NCc1ccco1`, the z-score is -0.39 (inactive) and the cell count amounted to 2610 cells.

As for `COc1ccc(N(CCN2C(=O)c3ccccc3C2=O)C(=O)c2cccc([N+](=O)[O-])c2)cc1`, the z-score was -0.25 (inactive) and the cell count worked out at 2790 cells.

For the compound `O=C1/C(=C/c2ccc(N3CCOCC3)o2)SC(=Nc2ccccc2)N1CCc1c[nH]c2ccccc12`, the z-score is 2.67 and the cell count was found to be 192 cells.

For `NC(=O)c1cc2ccc(O)cc2oc1=NCc1ccccc1`, the z-score was -0.33 (inactive) and the cell count was found to be 3140 cells.

With `CCOC(=O)Cn1c2ccc(F)cc2c2nc(C)sc21`, the z-score is -0.39 (inactive) and the cell count worked out at 2900 cells.

`CCN(CCNC(=O)C1CCCN(S(=O)(=O)CC)C1)c1ccccc1` (configuration not stated): the z-score was -0.33 (inactive) and the cell count is 3430 cells.

Take `O=C1CN(C(=O)COc2ncnc3ccccc23)c2ccccc2N1`: the z-score was -0.38 (inactive) and the cell count amounted to 3020 cells.

As to `Cc1cc(Nc2nn(C)c(N)c2C#N)ccc1F`, the z-score was -0.33 (inactive) and the cell count was found to be 3300 cells.

On to `CCOC(=O)CC1C(=O)NCCN1c1nc2ccc(C)cn2c(=O)c1/C=C1\SC(=S)N(CC(C)C)C1=O` (configuration not stated), for which the z-score is 0.66 and the cell count was 3220 cells.

Consider `Cc1cc(/C=C2\NC(=S)N(C)C2=O)ccc1N1CCCC1`, for which the z-score is 0.07 and the cell count came to 2980 cells.

Take `CCOc1ccc(NC(=S)N2CCC(N(C)CC3CCCO3)CC2)cc1` (configuration not stated): the z-score was -0.33 (inactive) and the cell count worked out at 2900 cells.

As for `CCc1ccccc1N1C(=O)/C(=C/c2ccc(N3CCN(C)CC3)o2)C(=O)NC1=S`, the z-score is -0.35 (inactive) and the cell count was found to be 2580 cells.

As to `O=C(NCc1cn2ccccc2n1)c1ccco1`, the z-score is -0.33 (inactive) and the cell count amounted to 3100 cells.

Take `CC(=O)Cc1cc(O)c2ccccc2c1OC(=O)c1ccc(Br)cc1`: the z-score is -0.26 (inactive) and the cell count came to 2650 cells.

Consider `COc1ccc(C)cc1NC(=O)CC(NC(C)=O)c1ccccc1` (configuration not stated), for which the z-score is -0.33 (inactive) and the cell count worked out at 3060 cells.

With `CC(C)NC(=O)NC(=O)COC(=O)c1cccc(S(=O)(=O)N2CCCCC2)c1`, the z-score was -0.39 (inactive) and the cell count is 3040 cells.

Turning to `CNC(=O)c1ccc(-c2sc3nc(N4CCOCC4)c4c(c3c2N)CC(C)(C)OC4)o1`, the z-score was -0.33 (inactive) and the cell count is 2290 cells.

For the compound `CCN1/C(=C/C=C/c2oc3ccc4ccccc4c3[n+]2CC)Oc2ccc3ccccc3c21`, the z-score was 1.7 and the cell count amounted to 330 cells.

On to `Cc1ccc(CN=Cc2[nH]c3ccc(Br)c(Cl)c3c2O)cc1`, for which the z-score was -0.33 (inactive) and the cell count stood at 2930 cells.

`CCOC(=O)CC1C(=O)NCCN1c1nc2c(C)cccn2c(=O)c1/C=C1\SC(=S)N(C(C)CC)C1=O` (configuration not stated): the z-score is 0.45 and the cell count is 3100 cells.

Consider `CCS(=O)(=O)c1ccc2oc(SCC(=O)NC3CCCC(C)C3C)nc2c1` (configuration not stated), for which the z-score is -0.26 (inactive) and the cell count is 2950 cells.

With `O=C(CNC(=O)c1ccco1)OCC(=O)c1ccccc1`, the z-score was -0.33 (inactive) and the cell count came out at 3180 cells.

As to `O=C1S/C(=C\c2ccc(N3CCOCC3)o2)C(=O)N1Cc1ccc(F)cc1`, the z-score is 1.17 and the cell count turned out to be 665 cells.

`CCc1cccc2cc3c(N)c(C(=O)Nc4ccc(S(=O)(=O)N5CCCC5)cc4)sc3nc12`: the z-score was 0.3 and the cell count stood at 2430 cells.

As for `COc1cccc2c(=O)n(CC(=O)Nc3cccc(F)c3)ccc12`, the z-score is -0.33 (inactive) and the cell count stood at 3120 cells.

Consider `CC(=O)c1ccc2cccc3c2c1N=CN3C`, for which the z-score was -0.23 (inactive) and the cell count is 3230 cells.

Take `NS(=O)(=O)c1cccc2cccnc12`: the z-score was -0.33 (inactive) and the cell count amounted to 3060 cells.

Take `N#C/C(=C/c1ccc(N2CCCCC2)o1)C(=O)Nc1ccc2ccccc2c1`: the z-score is 5.59 and the cell count worked out at 3000 cells.

Take `COc1ccc(NC(=O)c2sc3nc(-c4cccnc4)ccc3c2N)cc1`: the z-score was -0.3 (inactive) and the cell count was 2880 cells.

For `COc1cc(N2CCCC2)c(OC)cc1/C=C1/NC(=S)NC1=O`, the z-score is 0.59 and the cell count came out at 2940 cells.

In the case of `CC1CCCN(c2nc3c(c(=O)n(C)c(=O)n3C)n2CCSc2nc3ccccc3s2)C1` (configuration not stated), the z-score was -0.38 (inactive) and the cell count is 3180 cells.

Turning to `CCN(CC)c1ccc2cc(S(=O)(=O)c3ccc(Cl)cc3)c(=O)oc2c1`, the z-score was -0.31 (inactive) and the cell count turned out to be 2590 cells.

Consider `O=[N+]([O-])c1ccc(C2=NN(c3ccccc3)C(c3ccco3)C2)cc1` (configuration not stated), for which the z-score is 0.17 and the cell count is 3180 cells.
